According to patent US10036036B1, “Compositions and methods for deploying a transgenic refuge as a seed blend” (priority 2007, dated 2018):

Tested on: western and northern corn rootworm
Experiment: Field trial (Example 3): corn rootworm damage by Iowa class, percent of control and synergy threshold
Format: in vivo
Procedure: A field trial was established and completed in accordance with pertinent protocols and in conformance with USDA notification requirements. The purpose of the trial was to determine the efficacy of transgenic event Cry3Bb.11231 in corn seed in combination with corn rootworm seed treatments using imidacloprid.
All seed treatments with pesticides were carried out as described in Example 1. In seed treatment number 1 and 2, Gaucho® was used for wire worm protection, but at levels sufficiently low that it would be expected to have no effect on corn rootworms (i.e., at a treatment level of about 60 gm of active/100 kg seed or 0.16 mg active/kernel), otherwise, seed receiving treatment number 2 had only transgenic event Cry3Bb.11231 and no pesticide treatment that would be expected to be effective against corn rootworm.
For seeds having treatments numbered 3 through 5, the pesticides were applied by the methods described in Example 1. For seeds having treatment numbers 6 and 7, commercially available Force® 3 G and Lorsban® 15 G were applied to the soil in a 5″ band at the time of sowing. The levels of application are as shown and are within the ranges recommended for standard commercial practice.
Corn seeds to be tested were planted and grown at four different locations across several Midwestern states in the United States corn belt according to the protocol described above.
The determination of damage by corn root worm was made according to the protocol described in Example 2.
The combination of imidacloprid seed treatment with corn seed having a Cry3Bb.11231 transgenic event was tested for possible synergy at a level of rootworm damage of 3-6. In the first test, shown in Table 2, the percentage of test plants having damage levels of from 3 to 6, on the Iowa 1-6 Scale, was determined for the control and for seeds treated with the pesticide at two levels, and for seeds having the transgenic event, alone and in combination. The following formula was then used to calculate a “synergy threshold”: (% of control Cry3Bb.11231)*(% of control imidacloprid treatment)/100.
This threshold was compared against the percent of control for the treatment combination (i.e., Cry3Bb.11231 with imidacloprid @ 400 gm/100 kg). If the treatment combination percent of control was below the threshold, then it was concluded that there was synergy.
It was believed that the measurement of rootworm damage at higher damage levels (i.e., levels 3-6) is a useful indicator that correlates with subsequent yield loss due to such damage. The reason for this is that rootworm damage at levels 1 and 2 seldom causes corn plants to fall over and lodge, and such minimal root loss is not believed to reduce the number or weight of kernels per ear. However, root damage at levels of 3 and above increasingly causes lodging and loss of yield. Therefore, it is believed that the summed damage levels of 3-6 (and in some cases, 4-6 and 5 and 6), provides a useful indication of the effect of corn rootworm damage on subsequent corn yield.

O=[N+]([O-])NC1=NCCN1Cc1ccc(Cl)nc1 [Imidacloprid, 1-[(6-chloro-3-pyridinyl)methol]-N-nitro-2-imidazolidinimime]
PERCENT OF CONTROL (Table 2, plants with damage levels 3-6 relative to isohybrid control): 80.5%
NUMBER OF PLANTS HAVING 3-6 DAMAGE LEVEL (Table 3, damage levels 3-6 on Iowa 1-6 scale): 71.7
PERCENT OF CONTROL (Table 3, damage levels 3-6 relative to untreated control): 80.5%
CORN ROOTWORM DAMAGE IN EACH IOWA CLASS (IOWA 1-6 SCALE): 1 (count of plants in Iowa class 1): 3
CORN ROOTWORM DAMAGE IN EACH IOWA CLASS (IOWA 1-6 SCALE): 2 (count of plants in Iowa class 2): 15
CORN ROOTWORM DAMAGE IN EACH IOWA CLASS (IOWA 1-6 SCALE): 3 (count of plants in Iowa class 3): 36
CORN ROOTWORM DAMAGE IN EACH IOWA CLASS (IOWA 1-6 SCALE): 4 (count of plants in Iowa class 4): 21
CORN ROOTWORM DAMAGE IN EACH IOWA CLASS (IOWA 1-6 SCALE): 5 (count of plants in Iowa class 5): 5
CORN ROOTWORM DAMAGE IN EACH IOWA CLASS (IOWA 1-6 SCALE): 6 (count of plants in Iowa class 6): 0
